This data set in a line: Human HepG2 cell viability assay in 384 well format. It is filed as toxicity, cell-based. Further details: dose 125 nL, time 70.5 hour; cytotoxicity at 70.5 h: concentration not given beside the values. The note with it: HepG2 cells, read-out: Inhibition.

As for `COc1ccc2nnc(CCCC(=O)NCCc3ccccn3)n2n1`, the cytotoxicity at 70.5 h was -3.59%.
Regarding `CC(=O)Nc1cccc2c1ccn2CC(=O)Nc1nc[nH]n1`, the cytotoxicity at 70.5 h was -2.28%.
On to `COc1ccc2c(c1)s/c(=N\C(=O)CSCC(=O)Nc1nccs1)n2C`, for which the cytotoxicity at 70.5 h is 16.4%.
Consider `COCCN(C)C(=O)c1nc2c(s1)CCCN2S(C)(=O)=O`, for which the cytotoxicity at 70.5 h is 3.66%.
Then `CC(C)NC(=O)[C@H]1C[C@H]2NCCO[C@@H]2C1`, with 3.88%; and `O=C(Nc1ccccc1)N1C[C@@H]2OCCN(C(=O)c3ccco3)[C@@H]2C1`, with -0.595%.
Turning to `Cc1cnc(N2C[C@@H]3[C@@H](C(=O)NCC(C)C)CCS(=O)(=O)[C@@H]3C2)nc1`, the cytotoxicity at 70.5 h was found to be 0.36%.
Then `Cn1nc(CN2CCCC2)c2c1CN(C(=O)c1cnccn1)CC2`, with -1.41%.
`CS(=O)(=O)N1CCCc2sc(C(=O)NC3CC3)nc21`: the cytotoxicity at 70.5 h was -3.24%.
As for `COCCO[C@H]1CCN(c2cc(OC)ncn2)[C@H]1Cc1cnn(C)c1`, the cytotoxicity at 70.5 h is -4.71%.
With `O=S(=O)(C1CC1)N1CCO[C@@H]2CN(Cc3ccco3)C[C@@H]2C1`, the cytotoxicity at 70.5 h was -2.12%.
`CN1CCN(C(=O)C[C@@H]2COC[C@H]3CN(c4ccncn4)C[C@@H]23)CC1`: the cytotoxicity at 70.5 h turned out to be 12.2%.
Then `CC(C)NC(=O)c1nc2c(s1)CCCN2c1ccccc1`, with 5.99%; and `COCC1CC2(CCN(C(=O)C3CCSCC3)CC2)CO1` (configuration not stated), with 8.61%; and `Cc1ccc(CN2CCC3(CCCN(C(=O)N(C)C)C3)C2)cc1` (configuration not stated), with -6.47%.
`CN(C)C(=O)N1CCCC2(CCN(Cc3ccncc3)C2)C1` (configuration not stated): the cytotoxicity at 70.5 h was -7.12%.
Consider `CC(C)N1CCO[C@H]2CN(S(=O)(=O)c3ccc(C#N)cc3)C[C@H]21`, for which the cytotoxicity at 70.5 h is -11.6%.
Then `CC1=N[C@@]2(CC[C@@H]3CN(CC(C)C)C[C@@H]32)C(=O)N1`, with -4.43%; and `Cn1nnc2c1CCN(Cc1ccoc1)C2COCc1ccccc1` (configuration not stated), with 1.66%.
Consider `CN(C)C1CC2(CCN(C(=O)c3csnn3)CC2)c2ccccc21` (configuration not stated), for which the cytotoxicity at 70.5 h is -0.291%.
Regarding `CCOC1CC2(CCN(Cc3cccn3C)CC2)C1`, the cytotoxicity at 70.5 h came out at 2.31%.
With `Cc1cc(CN2C[C@@H]3CN(C(=O)c4cccn4C)CCO[C@@H]3C2)no1`, the cytotoxicity at 70.5 h came out at 1.95%.
For the compound `CC(C)COC1CC2(CCN(Cc3nccn3C)CC2)C1`, the cytotoxicity at 70.5 h worked out at 6.92%.
With `COC1CC2(CCN(Cc3nccn3C)CC2)C1`, the cytotoxicity at 70.5 h was -5.43%.
On to `O=C(c1ccsc1)N1CCO[C@@H]2CN(Cc3ccccn3)CC[C@@H]2C1`, for which the cytotoxicity at 70.5 h is 8.56%.
As to `CC(C)Nc1ncnc2c1CCN(C(=O)NCc1cccnc1)CC2`, the cytotoxicity at 70.5 h is -1.24%.
Consider `CCOc1ncnc2c1CCN(C(=O)NCc1cccnc1)CC2`, for which the cytotoxicity at 70.5 h was determined as 6.36%.
On to `CCS(=O)(=O)N1C[C@@H]2CN(Cc3ccco3)CCO[C@@H]2C1`, for which the cytotoxicity at 70.5 h turned out to be 27.9%.
`COc1cc(N2CCC3(CCCN(C(=O)c4cccnc4)C3)C2)ncn1` (configuration not stated): the cytotoxicity at 70.5 h stood at 16.7%.
Regarding `CCN1CCO[C@@H]2CN(C(=O)COC3CCCC3)C[C@@H]2C1`, the cytotoxicity at 70.5 h worked out at 7.26%.
Regarding `CN1CCO[C@H]2CN(S(=O)(=O)c3ccc(C#N)cc3)C[C@H]21`, the cytotoxicity at 70.5 h came out at 3.3%.
Regarding `Cc1cccc(COCC2c3nnn(C)c3CCN2Cc2ccoc2)n1` (configuration not stated), the cytotoxicity at 70.5 h was -5.52%.
For the compound `c1nc2n(c1CN1CCCCC1)CCN(C1CCOC1)CC2` (configuration not stated), the cytotoxicity at 70.5 h is -3.62%.
In the case of `CC(C)NC1CCc2c(ccc(=O)n2CCN(C)C)C1` (configuration not stated), the cytotoxicity at 70.5 h came out at 7.71%.
For the compound `COCCN1CCCn2cnc(CNC(=O)N(C)C)c2C1`, the cytotoxicity at 70.5 h is -3.75%.
Regarding `CN(C)Cc1noc2c1CN(C(=O)c1ccncc1)CC2`, the cytotoxicity at 70.5 h is 5.83%.
Regarding `CC(=O)N1[C@H](CN(C)C)C[C@@H]2CN(c3ncc(F)cn3)CC[C@@H]21`, the cytotoxicity at 70.5 h is -6.27%.

For the origin of these results see ChEMBL document CHEMBL3507680, “University of Dundee, Gates Library screen for HepG2 cell viability”.
